Results as given in PMC6017705, “Discovery of N-(Naphtho[1,2-b]Furan-5-Yl) Benzenesulfonamides as Novel Selective Inhibitors of Triple-Negative Breast Cancer (TNBC)” (Molecules : A Journal of Synthetic Chemistry and Natural …, 2018).

Columns and labels:
Assay type in all cases: cell-based, human
[1] = system: MDA-MB-231; assay: Cell viability assay (CCK-8), MDA-MB-231; details: for inhibition at 5 µg/mL / IC50: Homo sapiens; for inhibition at 5 µg/mL: MDA-MB-231; for IC50: MDA-MB-231, 72 h, TNBC cell line, CCK-8, 72 h, 0.156 to 40 μM
Procedure: (§1) Four human TNBC cell lines (MDA-MB-231, MDA-MB-453, SUM-159, and BT-20), a non-TNBC breast cancer cell line (MCF-7) and a normal mammary epithelial cell line (MCF-10A) were cultured with DMEM (phenol free) supplemented with 2.5% CS-FBS and 1% L-Glu. 1.2 × 10^3 of cells were seeded into 384-well microplates and maintained for 24 h in an incubator at 37 °C in a 5% CO2, saturated humidified atmosphere. […] […] Then CCK-8 solution was added into cells and incubated for another 4 h. Absorbance was measured with a Microplate Reader at 450/600 nm. The IC50 values of the compounds on TNBC cell lines were derived using GraphPad Prism 5.0 (GraphPad Software, Inc., La Jolla, CA, USA).

[2] = system: SUM-159; assay: Cell viability assay (CCK-8), SUM-159; details: for inhibition at 5 µg/mL / IC50: Homo sapiens; for inhibition at 5 µg/mL: SUM159; for IC50: SUM159, 72 h, TNBC cell line, CCK-8, 72 h, 0.156 to 40 μM
Procedure: as §1

[3] = system: MCF-7; assay: Cell viability assay (CCK-8), MCF-7; details: Homo sapiens; for inhibition at 5 µg/mL: MCF7
Procedure: as §1

IC50 [1] [µM] | IC50 ([3]; MCF7, 72 h, non-TNBC breast cancer cell line, CCK-8, 72 h) [µM] | SMILES | inhibition at 5 µg/mL [1] [%] | inhibition at 5 µg/mL [2] [%] | inhibition at 5 µg/mL [3] [%] | IC50 [2] [µM] | growth-inhibitory effect on MDA-MB-231 (in words) [1] | growth-inhibitory effect on SUM-159 (in words) [2]
 |  | Cc1oc2c(cc(NS(=O)(=O)c3ccc(Cl)cc3)c3ccccc32)c1C(=O)O [Compound 3-1] | 31.4 | -0.754 | -12.2 |  |  | 
 |  | CCOC(=O)c1c(C)oc2c1cc(NS(=O)(=O)c1cc(C)c(C)cc1C)c1ccccc12 [Compound 3-2] | 24.3 | -0.884 | 17.7 |  |  | 
 |  | COC(=O)c1c(C)oc2c1cc(NS(=O)(=O)c1ccc(C(C)C)cc1)c1ccccc12 [Compound 3-4] | 37.8 | -0.319 | 14.2 |  |  | 
 |  | COC(=O)c1c(C)oc2c1cc(NS(=O)(=O)c1ccc(C)cc1C)c1ccccc12 [Compound 3-5] | 41.1 | 0.757 | 22 |  |  | 
 |  | CCOC(=O)c1c(C)oc2c1cc(NS(=O)(=O)c1ccc3ccccc3c1)c1ccccc12 [Compound 3-6] | 43.4 | 0.292 | 7.72 |  |  | 
 |  | COC(=O)c1c(C)oc2c1cc(NS(=O)(=O)c1ccc3ccccc3c1)c1ccccc12 [Compound 3-7] | 0.431 | 0.085 | -4.73 |  |  | 
 |  | CCc1ccc(S(=O)(=O)Nc2cc3c(C(=O)O)c(C)oc3c3ccccc23)cc1 [Compound 3-8] | -1.13 | 0.221 | -6.71 |  |  | 
 |  | COC(=O)c1c(C)oc2c1cc(NS(=O)(=O)c1ccc(F)cc1)c1ccccc12 [Compound 3-10] | 64.5 | 35.5 | 34.5 |  |  | 
 |  | CCOC(=O)c1c(C)oc2c1cc(NS(=O)(=O)c1ccc(CC)cc1)c1ccccc12 [Compound 3-11] | 41.1 | 0.175 | 13 |  |  | 
 |  | CCOC(=O)c1c(C)oc2c1cc(NS(=O)(=O)c1ccc(C(=O)O)cc1)c1ccccc12 [Compound 3-13] | 19.6 | -0.635 | 5.14 |  |  | 
 |  | COC(=O)c1c(C)oc2c1cc(NS(=O)(=O)c1ccc(C)cc1)c1ccccc12 [Compound 3-14] | 62.8 | 48.2 | 10.2 |  |  | 
 |  | COC(=O)c1c(C)oc2c1cc(NS(=O)(=O)c1cc(C)ccc1C)c1ccccc12 [Compound 3-15] | 45.6 | 0.037 | 18.5 |  |  | 
 |  | CCOC(=O)c1c(C)oc2c1cc(NS(=O)(=O)c1ccc(C)cc1C)c1ccccc12 [Compound 3-16] | 48.2 | 0.732 | 43.4 |  |  | 
5.2 |  | COC(=O)c1c(C)oc2c1cc(NS(=O)(=O)c1ccc(F)cc1C)c1ccccc12 [Compound 3-18] | 59.4 | 51.4 | 33.2 | 24.2 |  | 
 |  | Cc1cc(F)ccc1S(=O)(=O)Nc1cc2c(C(=O)O)c(C)oc2c2ccccc12 [Compound 3-19] | 19.3 | 0.38 | 16.3 |  |  | 
10 |  | CCc1ccc(S(=O)(=O)Nc2cc3c(C(=O)OC)c(C)oc3c3ccccc23)cc1 [Compound 3-20] | 53.5 | 65.4 | 31.2 | 17 |  | 
 |  | CCOC(=O)c1c(-c2ccccc2)oc2c1cc(NS(=O)(=O)c1ccc(CC)cc1)c1ccccc12 [Compound 3-22] | 53.6 | -0.556 | 2.24 |  |  | 
 |  | CCOc1ccc(S(=O)(=O)Nc2cc3c(C(=O)OCCOC)c(C)oc3c3ccccc23)cc1 [Compound 3-23] | 62 | 49.1 | 14.7 |  |  | 

IC50 [1] [µM] | IC50 ([3]; MCF7, 72 h, non-TNBC breast cancer cell line, CCK-8, 72 h) [µM] | SMILES | inhibition at 5 µg/mL [1] [%] | inhibition at 5 µg/mL [2] [%] | inhibition at 5 µg/mL [3] [%] | IC50 [2] [µM] | growth-inhibitory effect on MDA-MB-231 (in words) [1] | growth-inhibitory effect on SUM-159 (in words) [2]
 |  | COC(=O)c1c(C)oc2c1cc(NS(=O)(=O)c1cc(C)c(C)cc1C)c1ccccc12 [Compound 3-24] | 46.6 | 0.233 | 34.9 |  |  | 
 |  | CCCCCOC(=O)c1c(C)oc2c1cc(NS(=O)(=O)c1ccc(OC)cc1)c1ccccc12 [Compound 3-25] | 39.5 | 61.9 | 48.3 |  |  | 
 |  | Cc1oc2c(cc(NS(=O)(=O)c3ccccc3)c3ccccc32)c1C(=O)OCc1ccccc1 [Compound 3-26] | 51 | 1.58 | 25.6 |  |  | 
 |  | COC(=O)c1c(C)oc2c1cc(NS(=O)(=O)c1cccc3cccnc13)c1ccccc12 [Compound 3-27] | 48.2 | 10.2 | 35.5 |  |  | 
> 40 |  | CCCc1oc2c(cc(NS(=O)(=O)c3ccc(OC)cc3)c3ccccc32)c1C(=O)OCC [Compound 3-28] | 61.9 | 46 | 33.4 | 14.4 |  | 
 |  | COC(=O)c1c(C)oc2c1cc(NS(=O)(=O)c1ccc(Br)cc1)c1ccccc12 [Compound 3-29] | 45 | 1.32 | 14.5 |  |  | 
 |  | COC(=O)c1c(C)oc2c1cc(NS(=O)(=O)c1ccccc1)c1ccccc12 [Compound 3-30] | 50.9 | 0.862 | 29.3 |  |  | 
 |  | CCOC(=O)c1c(C)oc2c1cc(NS(=O)(=O)c1ccc(C(C)C)cc1)c1ccccc12 [Compound 3-31] | 32.1 | -1.33 | 2.95 |  |  | 
 |  | Cc1oc2c(cc(NS(=O)(=O)c3ccc(C(C)C)cc3)c3ccccc32)c1C(=O)O [Compound 3-32] | 24.7 | -0.964 | -7.57 |  |  | 
 |  | COC(=O)c1c(C)oc2c1cc(NS(=O)(=O)c1ccc(Cl)cc1)c1ccccc12 [Compound 3-33] | 32.8 | -0.507 | 2.82 |  |  | 
 |  | COC(=O)c1c(C)oc2c1cc(NS(=O)(=O)c1ccc(C(=O)O)cc1)c1ccccc12 [Compound 3-34] | 11 | -0.042 | 2.85 |  |  | 
 |  | CCOC(=O)c1c(C)oc2c1cc(NS(=O)(=O)c1c(C)cc(C)cc1C)c1ccccc12 [Compound 3-35] | 33.9 | 0.352 | 24.5 |  |  | 
 |  | CCOC(=O)c1c(C)oc2c1cc(NS(=O)(=O)c1ccc(C)cc1)c1ccccc12 [Compound 3-36] | 16.8 | -0.123 | -4.38 |  |  | 
 |  | COC(=O)c1c(C)oc2c1cc(NS(=O)(=O)c1c(C)cc(C)cc1C)c1ccccc12 [Compound 3-38] | 50.6 | 1.35 | 14.8 |  |  | 
 |  | Cc1oc2c(cc(NS(=O)(=O)c3ccc(F)cc3)c3ccccc32)c1C(=O)OC(C)C [Compound 3-39] | 42.3 | -0.193 | 4.95 |  |  | 
 |  | CCCc1oc2c(cc(NS(=O)(=O)c3ccc(C(=O)O)cc3)c3ccccc32)c1C(=O)OCC [Compound 3-40] | 12.5 | 0 | 2.52 |  |  | 
~20 | 1.45 | Cc1sc(N)c2c(=O)oc3c4ccccc4ccc3c12 [Compound B09] |  |  |  | > 40 | almost no growth-inhibitory effect | almost no growth-inhibitory effect
